This passage reports T/C results from PubChem BioAssay AID200 (DTP/NCI, 2004).

The experiment concerns B6C3F1 mice, B16 melanoma ip, median survival T/C. Description: NCI In Vivo Anticancer Drug Screen. Data for tumor model B16 Melanoma (intraperitoneal) in B6C3F1 mice. The note with it: endpoint: median survival time, higher = longer survival. An outline of the steps: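 Transplantable tumor in mice; treated vs vehicle control groups; survival or tumor size measured; value = T/C ratio.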

[1] abbreviates: dose: 12.5 mg/kg/injection, schedule: Q01DX009 (ip), vehicle: saline with Tween-80.
The mark [2] stands for this setting: dose: 25.0 mg/kg/injection, schedule: Q01DX009 (ip), vehicle: saline with Tween-80.
The mark [3] stands for this setting: dose: 50.0 mg/kg/injection, schedule: Q01DX009 (ip), vehicle: saline with Tween-80.
Setting [4] is: dose: 100.0 mg/kg/injection, schedule: Q01DX009 (ip), vehicle: saline with Tween-80.
[5] abbreviates: dose: 200.0 mg/kg/injection, schedule: Q01DX009 (ip), vehicle: saline with Tween-80.
Setting [6] is: dose: 400.0 mg/kg/injection, schedule: Q01DX009 (ip), vehicle: saline with Tween-80.
Where [7] appears, read: dose: 3.12 mg/kg/injection, schedule: Q01DX009 (ip), vehicle: saline with Tween-80.
Setting [8] is: dose: 6.25 mg/kg/injection, schedule: Q01DX009 (ip), vehicle: saline with Tween-80.
Where [9] appears, read: dose: 6.25 mg/kg/injection, schedule: Q01DX009 (ip), vehicle: Klucel (hydroxypropylcellulose) (HPC).
The mark [10] stands for this setting: dose: 12.5 mg/kg/injection, schedule: Q01DX009 (ip), vehicle: Klucel (hydroxypropylcellulose) (HPC).
[11] abbreviates: dose: 25.0 mg/kg/injection, schedule: Q01DX009 (ip), vehicle: Klucel (hydroxypropylcellulose) (HPC).
Setting [12] is: dose: 50.0 mg/kg/injection, schedule: Q01DX009 (ip), vehicle: Klucel (hydroxypropylcellulose) (HPC).
The mark [13] stands for this setting: dose: 100.0 mg/kg/injection, schedule: Q01DX009 (ip), vehicle: Klucel (hydroxypropylcellulose) (HPC).
Setting [14] is: dose: 12.5 mg/kg/injection, schedule: Q01DX009 (ip), vehicle: suspension in saline.
Setting [15] is: dose: 25.0 mg/kg/injection, schedule: Q01DX009 (ip), vehicle: suspension in saline.
Setting [16] is: dose: 50.0 mg/kg/injection, schedule: Q01DX009 (ip), vehicle: suspension in saline.
Where [17] appears, read: dose: 25.0 mg/kg/injection, schedule: Q01DX009 (ip), vehicle: saline.

Several values for one entry are separate records, joined by “and”; a condition that tells them apart may be missing. Equal values may be shown once. Toxic doses and inconclusive results are not listed.

Take `NCc1ccc(O)c(O)c1`: the T/C is, setting by setting: (dose: 28.13 mg/kg/injection, schedule: Q03HX024 (ip), vehicle: saline) 98 % of control; (dose: 56.25 mg/kg/injection, schedule: Q03HX024 (ip), vehicle: saline) 107 % of control; (dose: 75.0 mg/kg/injection, schedule: Q01DX009 (ip), vehicle: saline) 110 % of control; (dose: 225.0 mg/kg/injection, schedule: Q03HX024 (ip), vehicle: saline) 124 % of control; (dose: 300.0 mg/kg/injection, schedule: Q01DX009 (ip), vehicle: saline) 114 % of control and 117 % of control; (dose: 400.0 mg/kg/injection, schedule: Q01DX009 (ip), vehicle: saline) 117 % of control and 118 % of control. Also, under “dose: 500.0 mg/kg/injection, schedule: Q01DX009 (ip), vehicle: saline”, the T/C is 117 % of control and 91 % of control.

Take `O=C(NC1CCCCC1)OCc1c(COC(=O)NC2CCCCC2)c(-c2ccc(Cl)c(Cl)c2)n2c1CCC2`: the T/C was 190 % of control under setting [1]; 162 % of control and 222 % of control under setting [2]; 199 % of control and 235 % of control under setting [3]; 203 % of control and 316 % of control under setting [4]; 181 % of control and 214 % of control under setting [5]; 112 % of control under setting [6].

For the molecule `CCC(C)C(O)C(C)C(=O)C(C)/C=C(\C)CC(C)C1OC(=O)C1CC` (centres undefined), the T/C by setting is: (dose: 0.25 mg/kg/injection, schedule: Q01DX009 (ip), vehicle: saline + alcohol) 104 % of control; (dose: 0.5 mg/kg/injection, schedule: Q01DX009 (ip), vehicle: saline + alcohol) 98 % of control and 104 % of control; (dose: 1.0 mg/kg/injection, schedule: Q01DX009 (ip), vehicle: saline + alcohol) 109 % of control and 100 % of control; (dose: 2.0 mg/kg/injection, schedule: Q01DX009 (ip), vehicle: saline + alcohol) 98 % of control and 103 % of control.

In the case of `CC(=O)Nc1ccc(Nc2ccc(C(=C3C=CC(=[N+](C)CCC#N)C=C3)c3ccc(N(C)CCC#N)cc3)cc2)cc1`, the T/C by setting is: (dose: 0.78 mg/kg/injection, schedule: Q01DX009 (ip), vehicle: saline with Tween-80) 105 % of control; (dose: 1.56 mg/kg/injection, schedule: Q01DX009 (ip), vehicle: saline with Tween-80) 108 % of control; under setting [7], 105 % of control; under setting [8], 107 % of control; under setting [1], 120 % of control; under setting [2], 106 % of control.

As for `O=C(O)CSc1c(Cl)c(=O)oc2ccc(Cl)cc12`, the T/C was 97 % of control under setting [9]; 95 % of control under setting [10]; 101 % of control under setting [11]; 107 % of control under setting [12]; 116 % of control under setting [13].

On to `CC(=O)Nc1ccc(/C=N/NC(N)=S)cc1`, for which the T/C by setting is: under setting [2], 93 % of control; under setting [3], 97 % of control; under setting [4], 90 % of control; under setting [5], 88 % of control; under setting [6], 92 % of control.

In the case of `CCN(CC)CCC(=O)c1ccccc1`, the T/C was 97 % of control (dose: 3.12 mg/kg/injection, schedule: Q01DX009 (ip), vehicle: suspension in saline); 98 % of control (dose: 6.25 mg/kg/injection, schedule: Q01DX009 (ip), vehicle: suspension in saline); 104 % of control under setting [14]; 107 % of control under setting [15]; 124 % of control under setting [16].

Regarding `CCCCCCC(=O)CC(SCC)c1ccccc1Cl` (centres undefined), the T/C is, setting by setting: under setting [2], 86 % of control; under setting [4], 93 % of control; under setting [6], 96 % of control.

For `C=C(C)[C@@H]1CCc2c(O)c(O)c(=O)cc(C)c2C1`, the T/C runs as follows: (dose: 3.12 mg/kg/injection, schedule: Q01DX009 (ip), vehicle: Klucel (hydroxypropylcellulose) (HPC)) 100 % of control; under setting [7], 100 % of control; under setting [9], 99 % of control; under setting [8], 100 % of control; under setting [10], 104 % of control; under setting [1], 95 % of control. Further, the T/C was 100 % of control (dose: 12.5 mg/kg/injection, schedule: Q01DX009 (ip), vehicle: saline); 112 % of control under setting [11]; 102 % of control under setting [2]; 115 % of control under setting [17]; 99 % of control under setting [12]; 110 % of control under setting [3]. The T/C under setting [13] is 102 % of control.

For the molecule `COc1ccc2c(NCCCCCCNc3c4ccccc4nc4cc(OC)ccc34)c3ccccc3nc2c1`, the T/C reads like this: (dose: 39.0 micrograms/kg/injection, schedule: Q01DX009 (ip), vehicle: lactic acid) 108 % of control; (dose: 78.0 micrograms/kg/injection, schedule: Q01DX009 (ip), vehicle: lactic acid) 90 % of control.

As to `O=C(NC(Cc1ccc(I)cc1)C(=O)O)c1ccc(Br)cc1` (centres undefined), the T/C is, setting by setting: (dose: 25.0 mg/kg/injection, schedule: Q01DX009 (ip), vehicle: sodium bicarbonate) 96 % of control; (dose: 50.0 mg/kg/injection, schedule: Q01DX009 (ip), vehicle: sodium bicarbonate) 104 % of control; (dose: 100.0 mg/kg/injection, schedule: Q01DX009 (ip), vehicle: sodium bicarbonate) 101 % of control; (dose: 200.0 mg/kg/injection, schedule: Q01DX009 (ip), vehicle: sodium bicarbonate) 97 % of control.

For the molecule `Cc1nc(C(Cl)(Cl)Cl)[nH]c(=O)c1SCCO`, the T/C is, setting by setting: (dose: 25.0 mg/kg/injection, schedule: Q01DX009 (ip), vehicle: distilled water + alcohol) 111 % of control; (dose: 50.0 mg/kg/injection, schedule: Q01DX009 (ip), vehicle: distilled water + alcohol) 107 % of control; (dose: 100.0 mg/kg/injection, schedule: Q01DX009 (ip), vehicle: distilled water + alcohol) 102 % of control; (dose: 200.0 mg/kg/injection, schedule: Q01DX009 (ip), vehicle: distilled water + alcohol) 106 % of control; (dose: 400.0 mg/kg/injection, schedule: Q01DX009 (ip), vehicle: distilled water + alcohol) 119 % of control.

Consider `CC1=CC(=NN=c2cc(C)n([O-])c(C)c2)C=C(C)[N+]1=O`, for which the T/C under setting [14] was 91 % of control; the T/C under setting [2] is 107 % of control; the T/C under setting [15] is 99 % of control; the T/C under setting [3] was 123 % of control; the T/C under setting [16] was 95 % of control; the T/C under setting [4] is 121 % of control. Also, the T/C (dose: 100.0 mg/kg/injection, schedule: Q01DX009 (ip), vehicle: suspension in saline) was 108 % of control.

In the case of `O=C1N[C@@H]2C(=C[C@H](O)[C@@H](O)[C@H]2O)c2cc3c(c(O)c21)OCO3`, the T/C is 115 % of control (dose: 0.62 mg/kg/injection, schedule: Q01DX009 (ip), vehicle: saline with Tween-80); 111 % of control (dose: 1.25 mg/kg/injection, schedule: Q01DX009 (ip), vehicle: saline with Tween-80); 109 % of control (dose: 2.5 mg/kg/injection, schedule: Q01DX009 (ip), vehicle: saline with Tween-80); 123 % of control (dose: 5.0 mg/kg/injection, schedule: Q01DX009 (ip), vehicle: saline with Tween-80).

`CCCOC(=O)c1ccc(O)cc1`: the T/C is, setting by setting: under setting [1], 103 % of control; under setting [2], 109 % of control; under setting [3], 109 % of control; under setting [4], 89 % of control; under setting [5], 107 % of control; under setting [6], 100 % of control.

For the molecule `CC(=O)NCCCCCCNC(C)=O`, the T/C by setting is: under setting [17], 108 % of control; (dose: 50.0 mg/kg/injection, schedule: Q01DX009 (ip), vehicle: saline) 97 % of control; (dose: 100.0 mg/kg/injection, schedule: Q01DX009 (ip), vehicle: saline) 106 % of control; (dose: 200.0 mg/kg/injection, schedule: Q01DX009 (ip), vehicle: saline) 106 % of control; (dose: 800.0 mg/kg/injection, schedule: Q01DX009 (ip), vehicle: saline) 179 % of control.

Turning to `COC(C(=O)C(O)C(C)O)C1Cc2cc3cc(OC4CC(OC(C)=O)C(OC5CC(O)C(OC)C(C)O5)C(C)O4)cc(O)c3c(O)c2C(=O)C1OC1CC(OC2CC(OC3CC(C)(O)C(OC(=O)C(C)C)C(C)O3)C(O)C(C)O2)C(O)C(C)O1` (centres undefined), the T/C was 158 % of control (dose: 0.5 mg/kg/injection, schedule: Q01DX009 (ip), vehicle: saline with Tween-80) and 170 % of control (dose: 1.0 mg/kg/injection, schedule: Q01DX009 (ip), vehicle: saline with Tween-80).
